The text below walks through data of US7504489B2, “Inhibitors of ADP-ribosyl transferases, cyclases, and hydrolases, and uses thereof” (Albert Einstein College of Medicine of Yeshiva University, priority 2001, dated 2009).

Assay [1] concerns the target T1, CD38 (Homo sapiens, UniProt P28907).
T1 sequence (P28907 45-300): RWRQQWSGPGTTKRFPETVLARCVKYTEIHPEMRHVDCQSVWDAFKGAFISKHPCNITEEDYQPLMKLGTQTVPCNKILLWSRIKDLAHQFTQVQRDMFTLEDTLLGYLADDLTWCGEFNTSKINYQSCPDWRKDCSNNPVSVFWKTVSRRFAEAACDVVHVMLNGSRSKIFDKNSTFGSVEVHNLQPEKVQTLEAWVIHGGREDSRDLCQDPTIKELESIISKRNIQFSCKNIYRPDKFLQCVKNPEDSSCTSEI
Nature of the assay: CD38 activity and inhibition measurements (time-dependent inactivation, NGD+ to cGDPR, absorbance at 295 nm). In kind it is biochemical. The following applies: for residual enzymatic activity, % of the control: 10 min after treatment of enzyme (500 nM) with excess inhibitor (10 μM), 10 min, 10 µM. As to the method:
[…] Aliquots of the reaction were assayed by placing 5 μl of the reaction mixture into 1 ml of 50 mM HEPES (pH 7.5) containing 100 μM NGD^+, at 30, 60, 90, 120, 180, or 300 sec. The conversion of NGD^+ to cGDPR was monitored by determining absorbance at 295 nm. A reaction mixture lacking inhibitor was used as a control. Activity was determined as a function of time, and fitted to the equation A(t)=[…]^-kt, where A0 is activity at time zero (control), t is time in seconds, and k is the observed pseudo-first-order rate constant. Human CD38 (200 nM) was incubated with β-1'-pyridyl-2'-deoxyribose (25 mM) in a volume of 100 μl of 50 mM Tricine (pH 7.5). Aliquots of the reaction (5 μl) were assayed by placing into 1 ml of 50 mM HEPES (pH 7.5) containing 100 μM NGD^+ at 750, 1500, 2250, 3000, 4000, 8000, and 14400 s. The conversion of NGD^+ to cGDPR was monitored by absorbance at 295 nm. A reaction mixture lacking inhibitor was used as a control. Activity was determined as a function of time, and fitted to the equation A(t)=C+[…]^-kt, where A0 is activity at time zero (control), t is time in s, k is the observed pseudo-first-order rate constant, and C represents uninhibited activity at equilibrium.

Assay [2] has as its target T1, CD38. The experiment in a line: Radiochemical measurement of reaction rates (covalent labelling of CD38 by [2′-3H] inhibitor, gel filtration). Particulars: for kon (radioactivity, radiolabeled inhibitor bound versus time): [2′-3H]βNdR 9 μM, CD38 1.2 μM, gel filtration. The assay is classed as binding. As to the method:
[2′-^3H]β-1′-nicotinamide-2′-deoxyribose ([2′-^3H]βNdR) was used to measure the covalent interaction of inhibitor with CD38 as follows: 9 μM inhibitor with specific activity of 1233 cpm/nmol was incubated with 1.2 μM CD38 in a volume of 1 ml of 50 mM potassium phosphate (pH 7.5). The reactions were started by enzyme addition, and quenched by freezing in a dry ice/acetone bath after 30, 60, 90, 120, 250, 500, and 1000 sec. Samples were placed on 1 ml gel filtration columns (0° C.) that were used to separate protein from free inhibitor. Columns were cooled on ice, and eluted with cold (0° C.) 10 mM potassium phosphate (pH 7.5) as eluant. Fractions (1 ml) were combined with 9 ml of scintillation fluid, and counted for radioactivity. A sample lacking enzyme, but having the same incubations, was performed as a blank control. A sample using the α-[2′-^3H]nicotinamide-2′-deoxyribose of equal concentration and specific activity, and having the same incubations, was performed as a second control. The observed cpm in the protein peak (fractions 3+4) was fitted to the equation A(t)=A0(1−exp(−kt))+B, where A(t) is the cpm in protein at time t, A0 is the cpm at reaction completion, k is the observed pseudo-first-order rate constant, B is the activity of the blank, and t is the time in seconds.
The covalent interaction of [2′-^3H]β-1′-pyridyl-2′-deoxyribose with CD38 was measured as follows: 25 mM inhibitor with specific activity of 1233 cpm/nmol was incubated with 25.2 μM CD38 in a volume of 50 μl of 50 mM Tricine (pH 7.5). The reactions were started by enzyme addition, and quenched by freezing in a dry ice/acetone bath after 2 h, 7200 s. Samples were placed on (0° C.) 1-ml gel filtration columns (P-10) that were used to separate protein from free inhibitor. Columns were cooled on ice, and eluted with cold (0° C.) 10 mM potassium phosphate (pH 7.5) as eluant. Fractions (1 ml) were combined with 9 ml of scintillation fluid, and counted for radioactivity. A sample lacking enzyme, but undergoing the same incubations, was performed as a blank control. A sample using the α-[2′-^3H]nicotinamide-2′-deoxyribose of equal concentration and specific activity, and the same incubations, was used as a second control. The observed cpm in the protein peak (fractions 3+4) were fitted to the equation A(t)=A0(1−exp(−kt))+B, where A(t) is the cpm in protein at time t, A0 is the cpm at reaction completion, k is the observed pseudo-first-order rate constant, B is the activity of the blank, and t is the time in s.
(Size exclusion chromatography separates by hydrodynamic size, large species first.)

Assay [3] concerns the target T1, CD38. Nature of the assay: Determination of Ki and kchem by competitive method (NGD+ substrate, absorbance at 295 nm). The assay is classed as biochemical. The method, then: CD38 was used to start reactions containing 1-ml solutions of 50 mM potassium phosphate, 100 μM NGD, and 50, 25, 12.5, 6.25, and 0 μM βNdR. Reactions were initiated with 2 μl of 7 μM CD38, and reaction progress was monitored by measurement of absorbance at 295 nm. The initial slopes were used to determine the Ki value. The time course of absorbance for each sample was fitted to the equation A(t)=vt+(b−v)(1−exp(−kt))/k+A0, where k is the observed rate constant, b is the initial rate, v is the final rate, and A0 is the initial absorbance. The rate constant kchem (FIG. 3) was determined as reported (19).
This mechanism of inhibition was tested by treatment of CD38 with different concentrations of inhibitor in the presence of 50 Km of substrate to establish values for Ki and kchem. In the presence of 100 μM NGD^+, reaction mixtures containing 0 to 50 μM βNdR were initiated by addition of enzyme (FIG. 8).

Assay [4] has as its target T1, CD38. Described as above. In kind it is biochemical. The source holds these as a separate data set.
The target of assay [5] is T2, CD38 (Homo sapiens, UniProt P28907).
T2 sequence (P28907 1-300): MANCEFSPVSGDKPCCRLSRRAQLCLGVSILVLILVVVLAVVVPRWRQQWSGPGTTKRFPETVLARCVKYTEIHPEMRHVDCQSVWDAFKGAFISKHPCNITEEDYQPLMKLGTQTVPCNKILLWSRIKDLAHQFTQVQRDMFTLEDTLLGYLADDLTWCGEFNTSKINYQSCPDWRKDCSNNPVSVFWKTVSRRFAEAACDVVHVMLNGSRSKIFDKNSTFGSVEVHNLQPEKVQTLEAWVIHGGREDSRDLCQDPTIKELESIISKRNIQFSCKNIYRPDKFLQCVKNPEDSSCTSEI
Particulars: 37° C.; cited from earlier work.

The target in assay [6] is T1, CD38. Nature of the assay: Off-rate measurement (recovery of CD38 catalytic activity after inactivation). In kind it is biochemical. The method, then: Recovery of CD38 catalytic activity after inactivation with β-1′-nicotinamide-2′-deoxyribose was measured in reaction mixtures containing 500 nM CD38, 50 mM inhibitor, and 15 μM deoxyriboside. After timed intervals, 5 μl of the reaction mixture were added to a 1-ml reaction of 50 mM HEPES (pH 7.5) containing 300 μM NGD^+. A control was also prepared without the inhibitor. Production of cGDPR was determined by monitoring absorbance at 295 nm. The absorbance was fitted to the equation A(t)=vt+(b−v)(1−exp(−kofft))/koff+A0 (19), where koff is the observed rate constant, b is the initial rate, v is the final rate, and A0 is the initial absorbance. Recovery of CD38 catalytic activity after inhibition by βNdR was measured by adding inactivated CD38 to solutions of NGD^+, and monitoring absorbance change at 295 nm for periods of 3-4 h. The recovery process was slow: full catalytic activity was not restored over this time period. However, the measured rate constant for recovery could be measured by regressive fit of the data to the activity recovery equation, A(t)=vt+(b−v)(1−exp(−kofft))/koff+A0, where koff is the observed rate constant, b is the initial rate, v is the final rate, and A0 is the initial absorbance. […] The proposed mechanism of recovery operates through the hydrolytic path (FIG. 4).

Setting [7] is: listed as β-1′-nicotinamide-2′-deoxyribose.

Several values for one entry are separate records, joined by “and”; a condition that tells them apart may be missing. Equal values may be shown once.

“5′-phospho-1′-β-pyridyl-2′-deoxyribose [5′-phospho-1′-pyridyl-deoxyribose]”: the “effect of extended incubation on CD38” value on CD38 [1] (200 μM inhibitor) was “inhibited the enzyme”. Also, the “minimum value for kchem” value on CD38 [1] (200 μM inhibitor, extended incubations, activity versus time) is at least 0.00022 s⁻¹. Moreover, on CD38 [2] ([2′-3H] labelled inhibitor, gel-filtration), the “covalent attachment of the sugar moiety to the enzyme” value is “confirmed covalent attachment”. Moreover, the Ki at CD38 [3] (5′-phospho derivative, similar studies, read-out: Ki) is above 200000 nM.
In general, Km refers to the concentration of substrate that gives half-maximal velocity. For `NC(=O)c1ccc[n+]([C@@H]2O[C@H](COP(=O)([O-])OP(=O)(O)OC[C@H]3O[C@@H](n4cnc5c(=O)[nH]c(N)nc54)[C@H](O)[C@@H]3O)[C@@H](O)[C@H]2O)c1` [NGD^+, Nicotinamide guanine dinucleotide, reference compound], the Km on CD38 [4] (CD38 substrate) came out at 2000 nM.
As for `NC(=O)c1ccc[n+]([C@@H]2O[C@H](COP(=O)(O)O)[C@@H](O)[C@H]2O)c1` [NMN^+], the “kcat for hydrolysis (hydrolysis of the covalent intermediate)” value on CD38 [5] was 512 s⁻¹.
Consider `OC[C@H]1O[C@@H]([n+]2ccccc2)C[C@@H]1O` [β-pyridyl-deoxyribose, β-1′-pyridyl-2′-deoxyribose], for which the “extent of inhibition achieved” value at CD38 [1] (25 mM inhibitor, limited by long onset times and inhibitor decomposition) is 60-80%. Besides, the “rate of covalent inactivation, equivalent to kchem” value at CD38 [1] (saturating concentration (25 mM), absence of NGD+) was 0.00017 s⁻¹. The Ki at CD38 [3] (calculated value, read-out: Kieff (koffKi/kchem)) was 323000 nM; at CD38 [4] (50 μM to 50 mM inhibitor, 5 μM (3 Km) NGD+, read-out: Ki for CD38 inhibition) it was 11 mM. Further, the “Kieff relative to Kieff for βNdR” value at CD38 [3] (times larger) is reported as 10^5 times.
`NC(=O)c1ccc[n+]([C@H]2C[C@H](O)[C@@H](CO)O2)c1` [βNdR, β-1′-nicotinamide-2′-deoxyribose]: the “residual enzymatic activity, % of the control” value on CD38 [1] was “less than 5%”; on CD38 [1] (setting [7]), below 5%. In addition, the Ki on CD38 [1] (kon from activity decay, read-out: Kieff = koff/kon (Activity, koff)) came to 5.1 nM; on CD38 [1] (read-out: Kieff = koff/kon (kon from activity decay)), 5 nM; at CD38 [2] (kon from radioactivity, read-out: Kieff = koff/kon (Radioactivity, koff)) it was 3.3 nM; at CD38 [2] (read-out: Kieff = koff/kon (kon from radioactivity)) it was 3.2 nM; at CD38 [3] (100 μM NGD+, 0 to 50 μM inhibitor, listed as β-1′-nicotinamide-2′-deoxyribose, read-out: Ki (competitive, initial slopes)), 2500 nM; at CD38 [3] (100 μM NGD+, 0 to 50 μM inhibitor, read-out: Ki (competitive, initial slopes)), 1000 nM. Further, the Ki at CD38 [3] (average of the three Kieff values, read-out: Kieff (Average of values)) is 2.9 nM; on CD38 [3] (listed as β-D-1′-nicotinamide-2′-deoxyribofuranoside, read-out: Kieff, effective inhibition constant (average)) it was 2.9 nM; on CD38 [3] (read-out: Kieff = Kikoff/kchem), 0.4 nM; on CD38 [3] (read-out: Kieff, effective inhibition constant (average)), 2.9 nM and 2 nM. The entries for the “kon (radioactivity, radiolabeled inhibitor bound versus time)” value at CD38 [2] and on CD38 [2] (setting [7]) were 1540 M⁻¹ s⁻¹ and 1500 M⁻¹ s⁻¹, respectively. Further, the “koff, rate constant for recovery (activity recovery, hydrolysis)” value at CD38 [6] (inactivated CD38 added to NGD+, 3-4 h, no nicotinamide) was determined as 5e-06 s⁻¹. The “rate of CD38-deoxyribose hydrolysis relative to CD38 ribose 5-phosphate” value on CD38 [6] (ratio of hydrolysis rates of covalent intermediates) is 10^−8. The “kchem, rate constant for chemical reaction (competitive onset)” value at CD38 [3] (100 μM NGD+, 0 to 50 μM inhibitor, listed as β-1′-nicotinamide-2′-deoxyribose) stood at 0.0126 s⁻¹.
